Positions count from the first letter of the chain named. Entries after “also recorded” stand apart in the source; their conditions may differ. Read-outs that look alike come from different tables or passages of the source.
Experiments:
CocE [1] = target: T1, CocE (Rhodococcus sp., UniProt Q9L9D7); assay: Effect of DTT on decay of CocE activity at 37° C.; format: biochemical, Rhodococcus sp. MB 1; conditions: DTT 10 mM
T1 construct: 6xHis (C); made in house; host or cells: E. coli BL-21 Gold (DE3), pET-22b(+)
T1 sequence (Q9L9D7 1-574): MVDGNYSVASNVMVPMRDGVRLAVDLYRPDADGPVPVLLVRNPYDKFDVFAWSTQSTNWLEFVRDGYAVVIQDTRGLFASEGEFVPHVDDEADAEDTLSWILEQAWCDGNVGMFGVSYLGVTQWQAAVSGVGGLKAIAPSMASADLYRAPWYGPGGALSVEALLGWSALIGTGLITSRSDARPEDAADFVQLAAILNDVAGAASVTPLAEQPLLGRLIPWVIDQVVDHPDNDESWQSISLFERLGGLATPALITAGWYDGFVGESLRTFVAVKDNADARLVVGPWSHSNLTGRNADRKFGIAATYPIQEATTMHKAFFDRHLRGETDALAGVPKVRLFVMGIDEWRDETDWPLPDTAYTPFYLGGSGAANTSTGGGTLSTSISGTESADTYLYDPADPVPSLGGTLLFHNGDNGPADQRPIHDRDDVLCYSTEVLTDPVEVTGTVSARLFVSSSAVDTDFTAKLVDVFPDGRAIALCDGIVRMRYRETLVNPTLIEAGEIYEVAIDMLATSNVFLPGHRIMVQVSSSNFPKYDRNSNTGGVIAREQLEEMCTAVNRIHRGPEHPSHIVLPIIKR
Procedure: (§1) In vitro kinetic assays. […] Initial rates were then used to determine Michaelis-Menten parameters. To assess thermal stability, enzyme preparations were preincubated at 37° C. for various lengths of time, prior to measurement of residual activities (Table 1 and FIG. 23).

CocE [2] = target: T1, CocE; format: biochemical, Rhodococcus sp. MB 1
Procedure: Analysis of CocE action on cocaine cleavage is performed by utilizing the spectroscopic properties of cocaine, which maximally absorbs light at a 240 nm wavelength. CocE activity is measured by monitoring for a decrease in signal at A240, using various concentrations of cocaine, and determining the initial rate of the decrease. From these values the Vmax of the enzyme can be determined. By pre-incubating the enzyme at 37° C. for various times before monitoring for activity, the half life of CocE at 37° C. can be calculated.
The initial rates (of decay) were determined by following the change in the intrinsic absorbance of cocaine at 240 nm (6700 M^1 cm^1)(Xie et al., 1999) using a SpectraMax Plus 384 UV plate reader (Molecular Devices, Sunnyvale, Calif.) using SOFTmax Pro software (Version 3.1.2). The reaction was initiated by adding 100 μL of a 2× enzyme solution (100 mM phosphate buffer, pH 7.4 and 300 mM NaCl) to 100 μL of a 2× cocaine solution (50 μg/mL enzyme, 100 mM Phosphate Buffer, pH 7.4 and 300 mM NaCl). All assays were performed with 100 μM DTT unless indicated otherwise. Final cocaine concentrations were as follows: 125, 62.5, 31.25, 15.63, 7.81, 3.91, 1.95, and 0.977 μM. Vmax and Km values were calculated using Prism (GraphPad Software, San Diego). For stability measurements, wild type and mutant enzymes were diluted to 2× concentration and incubated at 37° C. for the times indicated. At the end of each time point, an aliquot was removed and kinetic behavior was observed as outlined above.
as §1

CocE WT = target: T2, CocE WT (Rhodococcus sp., UniProt Q9L9D7); assay: Inhibition of CocE WT aggregate formation, non-denaturing gel, 1 hour at 37° C.; design: species or system Rhodococcus sp. MB 1; conditions: read-out: 50% stabilization concentration
T2 construct: 6xHis (C); made in house; host or cells: E. coli BL-21 Gold (DE3), pET-22b(+)
T2 sequence (Q9L9D7 1-574): T1 sequence (Q9L9D7 1-574)
Excerpt: To further study CocE stabilization with small molecules, other inhibitors of the CocE cleavage reaction were considered.

CocE mutant L169K = target: T3, CocE mutant L169K (Rhodococcus sp., UniProt Q9L9D7, L169K); assay: Circular dichroism melting of L169K in the presence of phenylboronic acid; format: physicochemical, Rhodococcus sp. MB 1
T3 construct: 6xHis (C); made in house; host or cells: E. coli BL-21 Gold (DE3), pET-22b(+)
T3 sequence (Q9L9D7 1-574 L169K): T1 sequence (Q9L9D7 1-574) with L169K
Procedure: CD analysis of another CocE mutant, L169K, established a ˜65° C. melting temperature alone, and ˜85° C. melting temperature in the presence of phenylboronic acid (FIG. 18), i.e. phenylboronic acid conferred an additional 20° C. melting to the already high original melting temperature for L169K.

WT CocE = target: T4, WT CocE (Rhodococcus sp., UniProt Q9L9D7); conditions: for melting temperature of WT CocE in presence of compound: excess benzoic acid, 5× molarity phenylboronic acid, 6031818
T4 sequence (Q9L9D7 1-574): T1 sequence (Q9L9D7 1-574)
Procedure: Further characterization of the stability of wild type (WT) CocE and thermostable mutants was performed through circular dichroism, which detects small changes in protein conformation and structure. Analysis by repeated CD measurements at increasing temperatures allows analysis of the thermodynamics and melting temperature (TM) of the protein, so long as the melting is reversible (i.e. the protein resumes it's original conformation upon cooling). […] However CD is still of value in determining the temperature to unfolding.

CocE [3] = target: T1, CocE; assay: Screen for stabilization of CocE: 1 hour at 37° C., then 4-nitrophenyl acetate cleavage; format: biochemical, Rhodococcus sp. MB 1; conditions: forty compounds tested
Procedure: However all of these small molecules inhibited enzyme activity to certain degrees. It was evaluated whether there might exist a small molecule that could prevent CocE aggregation, without inhibiting enzyme activity. Such a molecule could be used as a stabilizer in vitro, e.g., during enzyme preparation, and in vivo. An assay was designed to screen a library of 20,000 small molecules for stabilization of CocE. In that assay, the enzyme is mixed with the compounds in a 96-well plate format, and then incubated at 37° C. for one hour. […] After 37° C. incubation, the enzyme/compound mixtures are tested for the ability to cleave 4-nitrophenyl acetate (FIG. 8). Only compounds stabilized would be able to cleave after this incubation period.
Forty compounds were first tested. The compounds were assayed in duplicate with appropriate controls. A duplicate plate (without enzyme) was performed as a negative control, to check for compounds able to cause an increase in 400 nm absorbance in the absence of CocE. […] Some were able to do this in the absence of CocE. These were discarded as false positives.
FIG. 9 is a plot of the initial rate of 4-nitrophenyl acetate cleavage for all compounds, after the background “no enzyme” cleavage was subtracted. […]

CocE [4] = target: T1, CocE; format: biochemical, Rhodococcus sp. MB 1; remark: listed apart in the source
Procedure: CocE is also able to cleave another substrate, 4-nitrophenyl acetate (FIG. 3). Cleavage is monitored by detection of the appearance of the 4-nitrophenol reaction product, which absorbs at 400 nm.
Further spectrophotometric analysis of cocaine stabilization was performed, by analyzing the ability of CocE to cleave 4-nitrophenyl acetate, after preincubation at 37° C. for various times, in the presence of various concentrations of cocaine. […] However, preincubation of CocE at the higher concentrations for various times at 37° C. indicated the enzyme was stabilized enough to be able to cleave the 4-nitrophenyl substrate (FIG. 5).

[5] = cocaine: 62.5 and 125 μM, benzoic acid: higher concentrations

Row | SMILES | melting temperature of WT CocE in presence of compound (WT CocE) | effectiveness in stabilization screen (CocE [3]) | inhibition of 4-nitrophenyl acetate cleavage (CocE [4]; [5]) | inhibition of cocaine cleavage (CocE [2]) | other results
1 | O[C@@H](CS)[C@@H](O)CS [DTT] |  |  |  |  | effect on decay / τinact of wt-CocE (CocE [1]): shortens; also recorded: accelerate the decay; Ki (CocE [2]; cocaine hydrolysis, mixed competitive and non-competitive): ~380 µM; IC50 (CocE [2]; wt-CocE): ~390 µM
2 | OB(O)c1ccccc1 [Phenylboronic acid, phenylboronic acid] | 73 °C |  |  |  | EC50 (CocE WT): ~0.2 µM; additional melting conferred to L169K (CocE mutant L169K): 20 °C; melting temperature of L169K in presence of compound (CocE mutant L169K): ~85 °C; melting temperature higher than the T172R mutant (WT CocE; WT CocE with compound): more than 30 degrees
3 | CCOc1ccccc1N(CC(=O)N1CCCCC1)S(=O)(=O)c1ccccc1 [compound 6031818] | ~42 °C | most effective | weak inhibitor | does not inhibit | inhibition of 4-nitrophenyl acetate cleavage (CocE [4]): 16 µM
4 | COc1ccc(OC)c(N(CC(=O)N2CCCCC2)S(=O)(=O)c2ccccc2)c1 [compound 6169221] |  | effective | did not inhibit | did not inhibit | 

Source: patent US9526786B2, “Thermostabilization of proteins” (The Trustee of Columbia University in the City of New York, priority 2007, dated 2016)
